# Experimental data reported in US11820759B2, “Modulators of chemokine receptors” (CHEMOCENTRYX, INC., priority 2015, dated 2023).
# System: IL-23 induced ear swelling
# Assay: IL-23 induced ear swelling model for psoriasis
# Assay type: in vivo
# Conditions: C57B1/6 mice; sub-cutaneous, therapeutic dosing after 3 intradermal injections of IL-23; calipers; FIG. 2
# Experimental: An intradermal injection of IL-23 into the ear of mice can cause a swelling of the ear which is CCR6 dependent (Hedrick M. N et. al. J. Clinical Investigation. 2009. 119:2317-2329). C57B1/6 mice were given intradermal injections of IL-23 in the right ear. PBS was given by intradermal injection into the left ear as a control. Compound 1.023 (synthesized in example 6) was dosed by sub-cutaneous route. The compound was dosed in a therapeutic manner, after 3 intradermal injections of IL-23 and upon initiation of moderate ear swelling. The degree of swelling was measured using calipers.
smiles,measurement,value
"COc1ccc(C(=O)O)c(N2Cc3c(Cl)ccc(Nc4c(N[C@@H](c5cc(C)c(C)o5)C(C)(C)C)c(=O)c4=O)c3C2=O)c1 [Compound 1.023, 2-[4-chloro-7-[[2-[[(1R)-1-(4,5-dimethyl-2-furyl)-2,2-dimethyl-propyl]amino]-3,4-dioxo-cyclobuten-1-yl]amino]-1-oxo-isoindolin-2-yl]-4-methoxy-benzoic acid]",IL-23 induced ear swelling,completely inhibit IL-23 induced ear swelling
